Test results from publication PMC9687812, “Discovery of Trace Amine-Associated Receptor 1 (TAAR1) Agonist 2-(5-(4′-Chloro-[1,1′-biphenyl]-4-yl)-4H-1,2,4-triazol-3-yl)ethan-1-amine (LK00764) for the Treatment of Psychotic Disorders” (Biomolecules, 2022).

Experiments:
[1] = tested on: MK-801-treated Wistar rats; experiment: MK-801-induced hyperactivity in rats (Actometer); type: in vivo, rat
Description: (§1) MK-801 (dizocilpine, (+)-5-methyl-10,11-dihydro-5H-dibenzo-[a,d]-cyclohepten-5,10-imine maleate; Sigma-Aldrich, St. Louis, MO, USA) was dissolved in saline. Compound 62 (LK00764) was dissolved in 10% Tween 80 saline solution. All solutions were made fresh shortly before injections. Drug doses were tested in a pseudo-random order derived from Latin square design with at least 72 h between consecutive tests. All drugs and vehicles were administered intraperitoneally (i.p.) in the volume of 1 mL/kg. Drug doses are reported as salts. Selection of the MK-801 dose (0.2 mg/kg) was based the previous experience with the compound [24]. All locomotor activity tests (duration—60 min) were performed 15 min after the administration of compounds.
We evaluated locomotor activity of rats in the Actometer apparatus. A detailed description of the apparatus has been presented before. […]
Glutamate NMDA receptor antagonist-induced hyperactivity in rodents is commonly used as a pharmacological animal model of schizophrenia in the screening of potential antipsychotics. […] Thus, we used MK-801 (0.2 mg/kg, i.p.) treatment to induce hyperactivity in rats and analyzed the effects of compound 62 (LK00764) at doses of 0.3, 1, 3, 5, and 10 mg/kg, i.p. on locomotor activity of MK-801-treated Wistar rats.

intact Wistar rats = experiment: Spontaneous locomotor activity of intact rats (Actometer); type: in vivo, rat; settings: 0.3–10 mg/kg i.p., n = 9
Description: as §1
We evaluated locomotor activity of rats in the Actometer apparatus. A detailed description of the apparatus has been presented before. Shortly, each box of the apparatus was equipped by photocell-based infrared sensors to assess horizontal and vertical activity. Wistar rats were tested in the apparatus following a one-week habituation period (baseline period). During this period, the animals were placed in locomotor activity boxes for 60 min per day, 6 days a week to habituate them to the environment. […]
Next, we analyzed the locomotor effects of compound 62 (LK00764, 0.3–10 mg/kg, i.p.) on the additional group of intact rats (n = 9).

DAT-KO rats = experiment: Spontaneous locomotor hyperactivity of dopamine transporter knockout (DAT-KO) rats; type: in vivo, rat
Description: as §1
We evaluated locomotor activity of rats in the Actometer apparatus. A detailed description of the apparatus has been presented before. Shortly, each box of the apparatus was equipped by photocell-based infrared sensors to assess horizontal and vertical activity. Wistar rats were tested in the apparatus following a one-week habituation period (baseline period). […]
Animals without DAT have a disrupted re-uptake of dopamine resulting in remarkably elevated extracellular dopamine levels and spontaneous locomotor hyperactivity. […] Thus, we next evaluated the effects of LK00764 (1–10 mg/kg, i.p.) on spontaneous locomotor hyperactivity of DAT-KO rats (n = 9).

Wistar male rats = experiment: Stress-induced hyperthermia (SIH) test; type: in vivo, rat; settings: n = 8
Description: SIH test is commonly used to evaluate the potential anti-anxiety effect of drugs. Thermometry was performed rectally in rats with a BIOSEB thermometer. Eight Wistar male rats were injected i.p. with vehicle or LK00764, dissolved in 10% tween 80 saline solution. Latin square design was used for the experiment. The first measurement was performed directly before the injection and the second measurement was performed 15 min later. The difference between the first and the second temperature was calculated.
Another behavioral paradigm known to be affected by TAAR1 agonists is the stress-induced hyperthermia test, which is believed to be a sensitive approach to evaluate the anxiolytic action of compounds [10, 42, 39a]. Thus, compound 62 (LK00764) was evaluated in this test at doses of 3 and 5 mg/kg, i.p. (Figure 7). At both doses, this compound was effective in suppressing stress-induced hyperthermia in rats (p < 0.05 and p < 0.001 for 3 and 5 mg/kg, respectively; Dunn’s test).

TAAR1 = biological target: T1, TAAR1 (Homo sapiens, UniProt Q96RJ0); experiment: BRET-based cellular cAMP (EPAC biosensor) assay of TAAR1 agonism in transfected HEK-293 cells
T1 sequence (Q96RJ0 1-339): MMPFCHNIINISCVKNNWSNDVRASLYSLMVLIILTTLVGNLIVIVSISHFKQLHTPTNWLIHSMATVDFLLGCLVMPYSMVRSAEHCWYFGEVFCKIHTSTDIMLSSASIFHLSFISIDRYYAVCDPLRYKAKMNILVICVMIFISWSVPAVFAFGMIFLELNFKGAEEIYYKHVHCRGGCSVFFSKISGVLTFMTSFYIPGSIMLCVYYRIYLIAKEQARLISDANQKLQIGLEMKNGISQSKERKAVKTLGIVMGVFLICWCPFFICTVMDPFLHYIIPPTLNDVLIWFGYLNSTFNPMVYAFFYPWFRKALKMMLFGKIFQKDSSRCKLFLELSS
Description: The Bioluminescence Resonance Energy Transfer approach (BRET) has been used for functional activity experiments. HEK-293 cells were transiently transfected with cDNA for TAARs and cAMP BRET biosensor (EPAC) and then plated in a 96-well plate, as described [23]. All compounds were tested at the initial concentration of 10 µM. […] A natural agonist of TAAR1 β-phenylethylamine (β-PEA) was used as a positive control.

For `Cl.NCCc1nnc(-c2ccc(-c3ccc(Cl)cc3)cc2)[nH]1` [Compound 62, 2-(5-(4′-Chloro-(1,1′-biphenyl)-4-yl)-4H-1,2,4-triazol-3-yl)ethan-1-amine Hydrochloride], the “effect on MK-801-induced hyperactivity (horizontal and vertical activity)” value ([1]; 0.3, 1, 3, 5, 10 mg/kg i.p., MK-801 0.2 mg/kg i.p., Friedman test, horizontal p < 0.05, vertical p < 0.01, n = 7) was “dose-dependently mitigated”, the “effect on horizontal and vertical locomotor activity vs vehicle in MK-801-treated rats” value ([1]; doses of 5 and 10 mg/kg i.p., Dunnett's test p < 0.05) was “significant” and the “vertical activity of intact rats” value (intact Wistar rats; Friedman p < 0.001) was “decreased”. For the same molecule, the “horizontal activity of intact rats” value (intact Wistar rats; Friedman p = 0.60) was “did not affect”, the “horizontal and vertical activity of DAT-KO rats” value (DAT-KO rats; 1–10 mg/kg i.p., n = 9, Friedman p < 0.05) was “significant dose-dependent decrease” and the “locomotor hyperactivity of DAT-KO rats vs vehicle” value (DAT-KO rats; only the highest tested dose, 10 mg/kg i.p., Dunnett's test) was “significantly (p < 0.05) diminished”. For the same molecule, the “suppression of stress-induced hyperthermia” value (Wistar male rats; 3 mg/kg i.p., p < 0.05 Dunn's test) was “effective”, the “suppression of stress-induced hyperthermia” value (Wistar male rats; 5 mg/kg i.p., p < 0.001 Dunn's test) was “effective” and the melting point was 247 to 249 °C. The EC50 (TAAR1) was 4 nM, the “potency relative to Ulotaront (times higher)” value (TAAR1) was “more than 30 times” and the Emax (TAAR1; HEK293, read-out: Emax: maximum observed activation of TAAR1 relative to that observed for 1 μM of β-PEA) was 101%.
